Laboratory results published in ChEMBL document CHEMBL1201862, “PubChem BioAssay data set” (2004).
One block for each compound: values may come before it. Activity calls are given as the source filed them.

What was measured:
[1] = target: NAD-dependent protein deacylase sirtuin-5, mitochondrial (Homo sapiens, UniProt Q9NXA8); test: SIRT5 desuccinylase inhibitors, dose response, biochemical, fluorescence imaging, cherry-pick, set 5 (AID 720591);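 note: desuccinylation of succinyl peptide AMC substrate read as fluorescence after trypsin release; potency of inhibitors that lower fluorescence and may act on trypsin instead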
NAD-dependent protein deacylase sirtuin-5, mitochondrial, sequence (Q9NXA8 whole entry): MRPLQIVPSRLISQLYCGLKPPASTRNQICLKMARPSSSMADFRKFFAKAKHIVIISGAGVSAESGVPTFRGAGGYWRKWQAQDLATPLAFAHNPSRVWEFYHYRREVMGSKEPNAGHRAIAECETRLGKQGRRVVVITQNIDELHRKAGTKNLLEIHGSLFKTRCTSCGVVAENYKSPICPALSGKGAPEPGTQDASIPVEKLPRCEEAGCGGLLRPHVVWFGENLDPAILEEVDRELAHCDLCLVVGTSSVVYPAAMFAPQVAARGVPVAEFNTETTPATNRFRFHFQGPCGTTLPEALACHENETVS

[2] = target: T1, Short transient receptor potential channel 4 (Mus musculus, UniProt Q9QUQ5); test: mouse TRPC4 channel inhibitors, dose response, cell-based, HEK293 TRPC4/mu-opioid, Fluo-4 calcium (AID 434942); type: functional;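 note: potency of inhibitors blocking the TRPC4 calcium response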
T1 sequence (Q9QUQ5 whole entry): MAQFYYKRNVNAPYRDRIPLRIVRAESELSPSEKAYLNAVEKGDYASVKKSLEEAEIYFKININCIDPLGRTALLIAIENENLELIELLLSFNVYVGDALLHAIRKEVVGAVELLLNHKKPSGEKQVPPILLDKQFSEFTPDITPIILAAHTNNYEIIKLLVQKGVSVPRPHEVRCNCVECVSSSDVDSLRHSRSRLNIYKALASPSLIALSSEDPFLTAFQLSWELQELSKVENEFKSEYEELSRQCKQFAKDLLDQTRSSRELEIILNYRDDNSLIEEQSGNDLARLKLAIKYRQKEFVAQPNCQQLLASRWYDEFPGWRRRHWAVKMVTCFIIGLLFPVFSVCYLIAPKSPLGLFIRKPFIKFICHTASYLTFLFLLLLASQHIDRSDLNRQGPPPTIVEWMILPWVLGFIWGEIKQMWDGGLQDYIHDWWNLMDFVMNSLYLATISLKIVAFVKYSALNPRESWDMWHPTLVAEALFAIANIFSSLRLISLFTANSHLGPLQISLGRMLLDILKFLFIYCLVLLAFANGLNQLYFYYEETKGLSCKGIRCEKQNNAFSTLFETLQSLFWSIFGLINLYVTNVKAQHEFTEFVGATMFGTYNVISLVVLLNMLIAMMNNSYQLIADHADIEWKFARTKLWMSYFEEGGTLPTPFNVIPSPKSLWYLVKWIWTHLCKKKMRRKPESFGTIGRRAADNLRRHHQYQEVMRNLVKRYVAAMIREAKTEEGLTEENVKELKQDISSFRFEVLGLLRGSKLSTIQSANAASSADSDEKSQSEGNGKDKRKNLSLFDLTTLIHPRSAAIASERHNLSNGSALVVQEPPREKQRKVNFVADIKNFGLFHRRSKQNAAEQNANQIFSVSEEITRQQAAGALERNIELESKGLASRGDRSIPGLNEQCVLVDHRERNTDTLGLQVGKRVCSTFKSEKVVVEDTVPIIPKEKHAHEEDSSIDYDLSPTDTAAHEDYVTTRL

[3] = target: T2, DNA repair and recombination protein RAD54-like (Homo sapiens, UniProt Q92698); test: inhibitors of human RAD54 branch migration, confirmation, biochemical, fluorescence, cherry-picked samples, dose series (AID 651657); type: functional
T2 sequence (Q92698 whole entry): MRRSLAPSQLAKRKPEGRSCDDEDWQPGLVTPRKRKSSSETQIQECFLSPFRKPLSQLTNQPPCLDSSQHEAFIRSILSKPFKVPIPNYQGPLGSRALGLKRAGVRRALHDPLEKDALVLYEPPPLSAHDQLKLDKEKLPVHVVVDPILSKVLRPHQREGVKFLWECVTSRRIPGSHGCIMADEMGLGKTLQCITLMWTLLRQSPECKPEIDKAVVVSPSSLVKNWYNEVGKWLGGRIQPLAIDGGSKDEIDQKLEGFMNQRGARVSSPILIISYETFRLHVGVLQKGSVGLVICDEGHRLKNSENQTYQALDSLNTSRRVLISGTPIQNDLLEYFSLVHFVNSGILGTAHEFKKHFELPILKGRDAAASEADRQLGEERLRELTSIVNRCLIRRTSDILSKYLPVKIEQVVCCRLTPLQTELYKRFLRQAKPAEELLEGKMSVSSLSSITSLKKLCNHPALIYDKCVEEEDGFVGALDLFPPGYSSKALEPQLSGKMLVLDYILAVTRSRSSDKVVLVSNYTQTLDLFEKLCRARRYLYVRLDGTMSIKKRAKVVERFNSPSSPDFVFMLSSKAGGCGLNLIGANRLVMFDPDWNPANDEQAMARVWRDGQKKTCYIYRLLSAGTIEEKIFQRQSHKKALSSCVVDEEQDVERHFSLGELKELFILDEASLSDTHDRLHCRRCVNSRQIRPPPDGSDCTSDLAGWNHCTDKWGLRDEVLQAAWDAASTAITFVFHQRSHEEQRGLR

[4] = target: T3, Oxysterols receptor LXR-beta (Homo sapiens, UniProt P55055); type: functional, cell-based
T3 sequence (P55055 whole entry): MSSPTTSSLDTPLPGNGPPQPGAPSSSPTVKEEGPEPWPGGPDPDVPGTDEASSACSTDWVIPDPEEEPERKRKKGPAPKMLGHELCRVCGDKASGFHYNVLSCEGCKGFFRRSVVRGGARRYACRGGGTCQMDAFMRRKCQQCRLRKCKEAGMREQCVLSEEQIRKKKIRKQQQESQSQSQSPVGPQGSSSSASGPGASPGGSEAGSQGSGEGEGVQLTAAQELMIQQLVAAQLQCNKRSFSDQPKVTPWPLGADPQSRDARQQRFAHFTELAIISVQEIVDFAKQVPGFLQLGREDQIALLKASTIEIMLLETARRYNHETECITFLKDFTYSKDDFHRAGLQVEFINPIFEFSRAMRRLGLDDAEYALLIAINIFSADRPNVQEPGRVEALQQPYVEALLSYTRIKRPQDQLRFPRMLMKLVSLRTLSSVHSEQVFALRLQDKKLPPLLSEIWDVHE

[5] = target: T4, Sentrin-specific protease 7 (Homo sapiens, UniProt Q9BQF6); type: functional;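 note: Luminescence-based dose-response confirmation of ultra-high-throughput screening hits, measuring inhibition of SENP7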
T4 sequence (Q9BQF6 whole entry): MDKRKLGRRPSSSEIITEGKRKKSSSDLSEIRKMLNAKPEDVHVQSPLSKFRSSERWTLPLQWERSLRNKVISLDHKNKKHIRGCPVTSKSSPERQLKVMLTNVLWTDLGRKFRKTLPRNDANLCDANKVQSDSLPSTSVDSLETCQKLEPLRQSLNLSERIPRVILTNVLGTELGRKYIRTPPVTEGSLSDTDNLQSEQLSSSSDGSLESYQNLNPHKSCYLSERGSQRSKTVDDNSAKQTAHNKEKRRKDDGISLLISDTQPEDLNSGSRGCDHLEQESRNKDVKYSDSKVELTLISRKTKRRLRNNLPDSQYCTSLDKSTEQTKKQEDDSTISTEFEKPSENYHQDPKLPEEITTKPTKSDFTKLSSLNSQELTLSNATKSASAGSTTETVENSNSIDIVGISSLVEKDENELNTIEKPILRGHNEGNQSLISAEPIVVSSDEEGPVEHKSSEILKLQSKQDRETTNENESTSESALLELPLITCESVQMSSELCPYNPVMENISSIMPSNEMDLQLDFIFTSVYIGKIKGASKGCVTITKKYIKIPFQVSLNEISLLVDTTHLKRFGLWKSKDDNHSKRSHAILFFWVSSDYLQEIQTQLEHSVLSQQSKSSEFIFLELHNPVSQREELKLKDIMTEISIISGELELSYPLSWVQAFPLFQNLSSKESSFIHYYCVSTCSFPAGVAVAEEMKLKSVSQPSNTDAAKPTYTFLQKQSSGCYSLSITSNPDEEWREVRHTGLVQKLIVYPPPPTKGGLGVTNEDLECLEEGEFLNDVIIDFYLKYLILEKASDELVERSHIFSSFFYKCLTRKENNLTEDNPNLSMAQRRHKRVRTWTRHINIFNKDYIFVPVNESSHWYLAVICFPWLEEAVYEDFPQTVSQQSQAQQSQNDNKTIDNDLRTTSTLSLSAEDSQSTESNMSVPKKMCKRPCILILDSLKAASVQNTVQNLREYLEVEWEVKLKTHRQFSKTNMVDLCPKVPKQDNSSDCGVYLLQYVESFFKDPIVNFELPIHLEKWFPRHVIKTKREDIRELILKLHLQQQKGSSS

[6] = target: T3, Oxysterols receptor LXR-beta; type: functional, cell-based; remark: listed apart in the source
[7] = target: T5, Sentrin-specific protease 8 (Homo sapiens, UniProt Q96LD8); type: functional;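 note: luminescence read-out of SENP8 inhibition, dose-response confirmation following an ultra-high-throughput screen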
T5 sequence (Q96LD8 whole entry): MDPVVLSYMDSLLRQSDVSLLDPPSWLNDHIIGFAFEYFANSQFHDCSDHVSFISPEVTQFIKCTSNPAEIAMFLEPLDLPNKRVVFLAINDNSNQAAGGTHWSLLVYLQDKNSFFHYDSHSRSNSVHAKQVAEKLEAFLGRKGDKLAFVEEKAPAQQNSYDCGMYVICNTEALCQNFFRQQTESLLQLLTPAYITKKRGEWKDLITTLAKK

[8] = target: T6, Sentrin-specific protease 6 (Homo sapiens, UniProt Q9GZR1); type: functional;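 note: Luminescence-based dose-response confirmatory assay of SENP6 inhibition, following up an ultra-high-throughput screen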
T6 sequence (Q9GZR1 whole entry): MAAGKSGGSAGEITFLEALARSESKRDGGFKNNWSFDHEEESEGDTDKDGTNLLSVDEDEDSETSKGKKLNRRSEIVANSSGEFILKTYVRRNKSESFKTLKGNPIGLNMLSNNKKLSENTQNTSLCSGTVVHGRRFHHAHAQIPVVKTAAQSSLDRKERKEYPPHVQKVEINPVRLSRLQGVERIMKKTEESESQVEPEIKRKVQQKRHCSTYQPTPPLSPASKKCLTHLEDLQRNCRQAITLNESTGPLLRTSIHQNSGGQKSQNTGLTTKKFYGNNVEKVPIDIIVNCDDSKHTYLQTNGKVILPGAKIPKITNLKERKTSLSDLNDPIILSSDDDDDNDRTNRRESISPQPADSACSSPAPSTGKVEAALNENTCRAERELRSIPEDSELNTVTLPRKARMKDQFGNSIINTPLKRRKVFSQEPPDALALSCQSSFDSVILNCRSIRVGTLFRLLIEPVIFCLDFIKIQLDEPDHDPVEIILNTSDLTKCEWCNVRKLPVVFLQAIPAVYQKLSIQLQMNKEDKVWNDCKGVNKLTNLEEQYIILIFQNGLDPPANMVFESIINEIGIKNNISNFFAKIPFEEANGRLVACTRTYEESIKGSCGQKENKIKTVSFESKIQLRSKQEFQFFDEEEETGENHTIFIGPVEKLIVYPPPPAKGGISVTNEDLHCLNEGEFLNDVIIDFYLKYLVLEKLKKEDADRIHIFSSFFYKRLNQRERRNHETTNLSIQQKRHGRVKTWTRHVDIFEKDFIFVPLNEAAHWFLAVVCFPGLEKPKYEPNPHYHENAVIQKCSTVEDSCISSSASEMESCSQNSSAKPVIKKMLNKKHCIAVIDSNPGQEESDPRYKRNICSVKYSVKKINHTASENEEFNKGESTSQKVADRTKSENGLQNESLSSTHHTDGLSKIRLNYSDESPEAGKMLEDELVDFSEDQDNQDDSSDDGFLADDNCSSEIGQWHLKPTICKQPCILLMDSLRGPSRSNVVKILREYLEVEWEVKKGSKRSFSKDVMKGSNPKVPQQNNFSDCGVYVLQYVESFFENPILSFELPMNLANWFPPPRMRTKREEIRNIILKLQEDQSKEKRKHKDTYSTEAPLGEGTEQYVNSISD

Caspase-3 = target: T7, Caspase-3 (Homo sapiens, UniProt P42574); type: functional;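 note: Dose-response selectivity test against caspase-3 for candidate inhibitors of sentrin-specific proteases (SENPs)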
T7 sequence (P42574 whole entry): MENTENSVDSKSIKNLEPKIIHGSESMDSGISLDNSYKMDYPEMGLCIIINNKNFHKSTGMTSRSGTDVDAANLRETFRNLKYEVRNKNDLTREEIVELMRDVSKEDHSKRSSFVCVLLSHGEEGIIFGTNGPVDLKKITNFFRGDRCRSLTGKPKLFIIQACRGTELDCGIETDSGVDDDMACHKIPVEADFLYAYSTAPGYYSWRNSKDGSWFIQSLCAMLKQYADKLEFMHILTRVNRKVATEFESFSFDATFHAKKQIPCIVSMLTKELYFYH

Paired box protein Pax-8 = Paired box protein Pax-8 (Homo sapiens, UniProt Q06710); test: inhibitors of PAX8-driven TPO luciferase reporter, dose response, RMG-I cells, cherry-pick (AID 687027); type: functional, cell-based;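 note: luciferase reporter driven by Pax8 target thyroperoxidase promoter measured by SteadyGlo luminescence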
Paired box protein Pax-8, sequence (Q06710 whole entry): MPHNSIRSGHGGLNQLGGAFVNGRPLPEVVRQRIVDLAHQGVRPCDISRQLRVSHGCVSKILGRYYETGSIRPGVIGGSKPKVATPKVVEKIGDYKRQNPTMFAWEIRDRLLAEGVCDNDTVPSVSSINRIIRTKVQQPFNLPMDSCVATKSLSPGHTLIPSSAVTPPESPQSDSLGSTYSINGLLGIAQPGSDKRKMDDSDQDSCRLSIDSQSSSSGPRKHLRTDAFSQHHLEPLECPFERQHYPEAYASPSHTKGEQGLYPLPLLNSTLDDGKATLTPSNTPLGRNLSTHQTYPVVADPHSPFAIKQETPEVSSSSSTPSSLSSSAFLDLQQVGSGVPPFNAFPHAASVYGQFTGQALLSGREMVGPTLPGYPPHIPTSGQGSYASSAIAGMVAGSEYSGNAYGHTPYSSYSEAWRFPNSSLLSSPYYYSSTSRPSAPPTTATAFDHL

[9] = NIH:OVCAR-3 ovarian cancer cell cytotoxicity, dose response, PAX8 inhibitor project, plate reader, dry powder samples (AID 743044); type: functional, cell-based
[10] = A375 melanoma cell viability loss, dose response, counter-screen for MITF inhibitor project, CellTiter-Glo luminescence, dry powder, set 4 (AID 624364); type: functional, cell-based; conditions: A-375;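 note: A375 melanoma cells are MITF independent so this is a counter screen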
[11] = A375 melanoma cell cytotoxicity, dose response, counter-screen for MITF inhibitor project, CellTiter-Glo luminescence, dry powder, set 2 (AID 624489); type: functional, cell-based; conditions: A-375;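 note: actives are compounds lowering A375 viability meaning general cytotoxicity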
[12] = inhibitors of PGC1a acetylation in cells, dose response, cell-based, cherry-picked samples (AID 720514); type: functional;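 note: potency may reflect raised or lowered acetylation signal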
[13] = P. falciparum ATP4 D1247Y mutant growth inhibitors, dose response, NITD609-resistant line, SYBR Green, dry powder (AID 1159571); type: functional, cell-based;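 note: parasites synchronized at ring stage by sorbitol before testing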
[14] = HepG2 cell cytotoxicity, dose response, cytotoxicity control, plate reader, dry powder samples (AID 1159569); type: functional, cell-based;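 note: inhibitor potency with signal falling toward the positive control level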
[15] = P. falciparum Dd2 growth inhibitors, dose response, SYBR Green, dry powder samples (AID 1159566); type: functional, cell-based;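 note: potency for growth inhibition with lower SYBR green DNA signal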
[16] = P. falciparum Dd2 growth inhibitors, dose response, SYBR Green, cherry-picked samples (AID 1159567); type: functional, cell-based
[17] = P. falciparum 3D7-ScDHODH growth inhibitors, dose response, SYBR Green, dry powder samples (AID 1159570); type: functional, cell-based;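 note: parasite growth measured after 72 hours of compound exposure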

- AC50 [1]: > 30 µM (inactive)
- EC50 [2]: 0.531 µM (active)
- AC50 [3]: 34.4 µM (active)
Compound: Cc1ccc(Nc2cc(C)nc3c(C)cccc23)cc1

- AC50 [1]: > 30 µM (inactive)
Compound: CCOC(=O)Cc1csc(NC(=O)Cn2cnc3c2c(=O)n(C)c(=O)n3C)n1

Compound: Cc1ccc(-c2n[nH]c(Nc3ccccc3)n2)cc1
- EC50 (cells): > 67.5 µM (inactive)

- EC50 [4]: > 67.5 µM (inactive)
- IC50 [5]: 7.36 µM (active)
- EC50 [6]: > 67.5 µM (inactive)
- IC50 [8]: > 100 µM (inactive)
- IC50 (Caspase-3): 40.4 µM (active)
Compound: Cc1ccc(-c2nnc(Nc3ccccc3)[nH]2)cc1
- IC50 [7]: > 100 µM (inactive)

Compound: C[C@H]1CN([C@@H](C)CO)C(=O)Cc2cc(NC(=O)Nc3ccc(F)cc3)ccc2O[C@H]1CN(C)Cc1ccc(Cl)c(Cl)c1
- AC50 (Paired box protein Pax-8): 7.04 µM (active)
- AC50 [9]: 32.5 µM (active)

Compound: CN1CCN(C2=C(Nc3ccccc3)C(=O)c3ccccc3C2=O)CC1
- AC50 [10]: 61.7 µM (active)
- AC50 [11]: 24 µM (active)

Compound: C[C@@H]1CN([C@H](C)CO)C(=O)c2cccc(NC(=O)c3nc4ccccc4s3)c2O[C@@H]1CN(C)CC1CCCCC1
- AC50 [12]: 27.1 µM (active)

Compound: N#C[C@@H]1[C@@H](c2ccc(C#Cc3ccc(F)cc3)cc2)[C@H](CO)N1C(=O)C1CCCC1
- AC50 [13]: 1.99 µM (active)
- AC50 [14]: 25.5 µM (active)
- AC50 [15]: 1.52 µM (active)
- AC50 [16]: 2.53 µM (active)
- AC50 [17]: 1.82 µM (active)
